# Measurements from patent US4515708A, “Corrosion inhibitors” (Exxon Research & Engineering Co., priority 1982, dated 1985).
# Structures can show the parent of a compound that is named as a salt.
# Test: Corrosion Test 1 (dynamic wheel test; 3 wt% brine/Mentor 28; CO2 + H2S)
# Conditions: 2 ppm; 24 h, 70° C.; 30% solution
# Method: For each compound three mild steel coupons (approximately 100 mm×12 mm×1.5 mm) were tested at each concentration. Each was contacted in a 250 ml bottle with 200 ml of a test fluid either saturated with a carbon dioxide at 20° C. or containing 100 ppm hydrogen sulphide or having both CO2 and H2 S present in those amounts. The test fluid was treated with a 30% aqueous solution of the compound under test at 2, 10, 50 and 250 ppm except where indicated to the contrary. The coupon was subjected to a dynamic wheel test in which the bottle was mounted radially on the periphery of 650 mm diameter wheel which was rotated at about 40 rpm for 24 hours at 70° C. The weight loss was obtained, and also measured in a control experiment where no inhibitor was present. From this the % protection was calculated as % reduction in weight loss.
# Test fluid: 100 ml 3 wt% brine/100 ml Mentor 28 (Mentor®28 is a depolarised kerosene available from Exxon Chemical Company)
# Corrosives: Saturated CO2 +100 ppm H2 S
row,SMILES,% Protection
1,"CCc1ccccn1 [2-ethylpyridine.HCL, reference compound]",10%
2,"CCc1ccncc1 [4-ethylpyridine.HCL, reference compound]",2%
3,CCCCCCCCCCCCNCCc1ccccn1 [21 acetate salt],21%
4,"CCCCCCCCCCCCNCCc1ccccn1 [Example 21, N-dodecyl-β-(2-pyridyl)-ethylamine]",17%
5,CCCCCCCCNCCc1ccncc1 [Example 23],38%
6,CCCCCCCCCCNCCc1ccncc1 [Example 24],58%
7,c1ccc(CNCCc2ccncc2)cc1 [Example 29],25%

# Same assay, conditions: 10 ppm; 24 h, 70° C.; 30% solution
row,SMILES,% Protection
1,"CCc1ccccn1 [2-ethylpyridine.HCL, reference compound]",10%
2,"CCc1ccncc1 [4-ethylpyridine.HCL, reference compound]",5%
3,CCCCCCCCCCCCNCCc1ccccn1 [21 acetate salt],74%
4,"CCCCCCCCCCCCNCCc1ccccn1 [Example 21, N-dodecyl-β-(2-pyridyl)-ethylamine]",51%
5,CCCCCCCCNCCc1ccncc1 [Example 23],49%
6,CCCCCCCCCCNCCc1ccncc1 [Example 24],80%
7,c1ccc(CNCCc2ccncc2)cc1 [Example 29],56%

# Same assay, conditions: 50 ppm; 24 h, 70° C.; 30% solution
row,SMILES,% Protection
1,"CCc1ccccn1 [2-ethylpyridine.HCL, reference compound]",24%
2,"CCc1ccncc1 [4-ethylpyridine.HCL, reference compound]",13%
3,CCCCCCCCCCCCNCCc1ccccn1 [21 acetate salt],94%
4,"CCCCCCCCCCCCNCCc1ccccn1 [Example 21, N-dodecyl-β-(2-pyridyl)-ethylamine]",86%
5,CCCCCCCCNCCc1ccncc1 [Example 23],83%
6,CCCCCCCCCCNCCc1ccncc1 [Example 24],88%
7,c1ccc(CNCCc2ccncc2)cc1 [Example 29],60%

# Same assay, conditions: 250 ppm; 24 h, 70° C.; 30% solution
row,SMILES,% Protection
1,"CCc1ccccn1 [2-ethylpyridine.HCL, reference compound]",18%
2,"CCc1ccncc1 [4-ethylpyridine.HCL, reference compound]",16%
3,CCCCCCCCCCCCNCCc1ccccn1 [21 acetate salt],96%
4,"CCCCCCCCCCCCNCCc1ccccn1 [Example 21, N-dodecyl-β-(2-pyridyl)-ethylamine]",93%
5,CCCCCCCCNCCc1ccncc1 [Example 23],92%
6,CCCCCCCCCCNCCc1ccncc1 [Example 24],95%
7,c1ccc(CNCCc2ccncc2)cc1 [Example 29],67%

# Same assay, conditions: after addition of acetic acid
row,SMILES,corrosion protection compared with Example 4
1,"CCCCCCCCCCCCNCCc1ccccn1 [Example 21, N-dodecyl-β-(2-pyridyl)-ethylamine]",substantially identical protection to that seen in Example 4

# Same assay, conditions: unsalified product
row,SMILES,corrosion protection compared with Example 4
1,"CCCCCCCCCCCCNCCc1ccccn1 [Example 21, N-dodecyl-β-(2-pyridyl)-ethylamine]",inferior corrosion protection to Example 4

# Test: Solubility Test (35 wt% solution in isopropylalcohol shaken with water, brine or heptane)
# Format: physicochemical
# Conditions: not given
# Method: The active material under test was made up into a 35 wt% solution in isopropylalcohol (IPA). 0.3 ml of this solution was shaken with 10 ml of each of the liquids in which solubility is to be tested: water, 5 wt% NaCl solution (brine) and heptane. The mixture was observed after 30 minutes and 24 hours.
SMILES,SOLUBILITY IN: Heptane,SOLUBILITY IN: Water
CCCCCCCCNCCc1ccncc1 [Example 23],S,S

# Same assay, conditions: 0.3 ml of 35 wt% IPA solution in 10 ml 5 wt% NaCl solution; 30 minutes and 24 hours
row,SOLUBILITY IN: Brine,SMILES
1,S,NCCCNCCc1ccncc1 [Example 33]

# Same assay, conditions: 0.3 ml of 35 wt% IPA solution in 10 ml heptane; 30 minutes and 24 hours
row,SOLUBILITY IN: Heptane,SMILES
1,S,CCCCCCCCCCNCCc1ccncc1 [Example 24]
2,S,CCCCCCCCCCCCCCNCCc1ccncc1 [Example 26]

# Same assay, conditions: 0.3 ml of 35 wt% IPA solution in 10 ml water; observed after 30 minutes and 24 hours
row,SOLUBILITY IN: Water,SMILES
1,S,CCCCCCCCCCNCCc1ccncc1 [Example 24]
2,S,CCCCCCCCCCCCCCNCCc1ccncc1 [Example 26]
3,S,NCCCNCCc1ccncc1 [Example 33]

# Test: Emulsion Test (3 wt% brine / heptane)
# Format: physicochemical
# Set-up: Emulsion thickness after 30 mins: unit not given here
# Conditions: 1 ml of 35 wt% IPA solution, 50 ml 3 wt% brine, 50 ml heptane
# Method: 1 ml of the solutions used for Test A was shaken with 50 ml of 3 wt% brine and 50 ml of heptane for 1 minute in a 150 ml bottle. The emulsion was observed, and the time noted for the emulsion to break and form a clean interface with clear liquid layers. If at 30 minutes this had not occurred, the appearance was recorded together with the thickness of any persisting emulsion.
row,Time to break emulsion,SMILES
1,> 30 min,CCCCCCCCCCNCCc1ccncc1 [Example 24]
2,> 30 min,CCCCCCCCCCCCCCNCCc1ccncc1 [Example 26]
3,> 30 min,NCCNCCc1ccncc1 [Example 32]
4,1 min,NCCCNCCc1ccncc1 [Example 33]

row,SMILES,Time to break emulsion
1,CCCCCCCCNCCc1ccncc1 [Example 23],10 min
2,c1ccc(CNCCc2ccncc2)cc1 [Example 29],1 min

# Same assay, conditions: 50 ml 3 wt% brine/50 ml heptane
row,Emulsion thickness after 30 mins,SMILES
1,1.0,CCCCCCCCCCCCCCNCCc1ccncc1 [Example 26]

# Same assay, conditions: hydrocarbon layer; 50 ml 3 wt% brine/50 ml heptane
row,"Appearance after 30 mins, hydrocarbon",SMILES
1,hazy,CCCCCCCCCCNCCc1ccncc1 [Example 24]
2,clear,CCCCCCCCCCCCCCNCCc1ccncc1 [Example 26]
3,clear,NCCNCCc1ccncc1 [Example 32]
4,clear,NCCCNCCc1ccncc1 [Example 33]

row,SMILES,"Appearance after 30 mins, hydrocarbon"
1,CCCCCCCCNCCc1ccncc1 [Example 23],clear
2,c1ccc(CNCCc2ccncc2)cc1 [Example 29],clear

# Same assay, conditions: water layer; 50 ml 3 wt% brine/50 ml heptane
row,"Appearance after 30 mins, water",SMILES
1,hazy,CCCCCCCCCCNCCc1ccncc1 [Example 24]
2,hazy,CCCCCCCCCCCCCCNCCc1ccncc1 [Example 26]
3,hazy,NCCNCCc1ccncc1 [Example 32]
4,clear,NCCCNCCc1ccncc1 [Example 33]

row,SMILES,"Appearance after 30 mins, water"
1,CCCCCCCCNCCc1ccncc1 [Example 23],clear
2,c1ccc(CNCCc2ccncc2)cc1 [Example 29],clear
